This is an account of results in patent US20250355000A1, “URINARY BRANCHED-CHAIN AMINO ACIDS (UBCAAS) AS INSULIN RESISTANCE BIOMARKERS” (SKILLCELL, priority 2022, published 2025).

In the assay the test system is Leucine Dehydrogenase (LeuDH) from B. cereus containing a SUMO-protein domain. In kind it is biochemical, Bacillus cereus. As to conditions: for A 600 nm (absorbance values for L-amino acids): 15 minutes at 37° C., 100 mM Tris-HCl pH7.5, MTT reduction. The source says:
The IDIr biochemical network uses the enzyme Leucine Dehydrogenase (LeuDH) for oxidizing the branched-chain amino acids (BCAA) and for producing the colorimetric substrate, blue reduced MTT. The absorbance values are proportional to BCAA levels. Detection and measurement branched-chain amino acids in biological fluids (serum and urine) correlate with insulin-resistance indexes. Thus, the substrate specificity (other L-amino acids than BCAA) of Leucine Dehydrogenase (LeuDH) from B. cereus containing a SUMO-protein domain needs to be verified to avoid erroneous results using IDIr test.
Analysis of the substrate specificity of the Leucine Dehydrogenase co-expressed with SUMO-protein domain was done using 18 natural proteinogenic L-amino acids in the same conditions used for determining the kinetic parameter of LeuDH with BCAA as substrates.
All solutions were prepared in 100 mM Tris-HCl pH7.5 buffer
• NAD+50 mM • Ascorbate Oxidase 10 U/mL • 1M-PMS 0.2 mM
• MTT 2 mM • Leucine Dehydrogenase 75 U/mL • L-amino acids • L-Leucine 1 mM • L-Valine 1 mM • L-Isoleucine 1 mM • L-Alanine 1 mM • L-Arginine 1 mM • L-Aspartate 1 mM • L-Glycine 1 mM • L-Glutamate 1 mM • L-Glutamine 1 mM • L-Histidine 1 mM • L-Lysine 1 mM • L-Methionine 1 mM • L-Phenylalanine 1 mM • L-Proline 1 mM • L-Serine 1 mM • L-Threonine 1 mM • L-Tryptophan 1 mM • L-Tyrosine 1 mM
8 μL of A Solution were pre-incubated with 53 μL of each L-amino acid separately in a well of the microplate for 5 minutes at 37° C. Then, 4 μL of B Solution were added. The kinetics of the reactions were followed during 30 minutes at 37° C. Absorbances were read at 600 nm every 60 seconds.
Blanks were performed using Tris-HCl 100 mM pH 7.5 buffer containing no L-amino acid during the incubation with A solution. Experiments were performed in duplicates. Results were normalized to the oxidation of L-leucine at 15 minutes.
Oxidation of L-amino acids was followed by colorimetric reduction of Thyazolyl Blue Tetrazolium Bromide. Absorbance at 600 nm is proportional to the concentration of L-amino acids in solution.
On the technique in general: Formazan colour is commonly taken as a measure of viable cells.

Where [1] appears, read: normalized to L-Leucine oxidation at 15 minutes (100%), 37° C., L-amino acid 1 mM.

Like-named read-outs stand apart in the source and are kept apart here.

Turning to `N=C(N)NCCC[C@H](N)C(=O)O` [ARG, L-Arginine], the “A 600 nm (absorbance values for L-amino acids)” value (“A 600 nm” below) (L-amino acid 1 mM) is listed as 0.003. For the same compound, under setting [1], the “Normalized activity (%)” value is on record as 0.4%.
As for `C[C@@H](O)[C@H](N)C(=O)O` [THR, L-Threonine], the “A 600 nm” value (L-amino acid 1 mM) was determined as 0.002. The “Normalized activity (%)” value under setting [1] stood at 0.3%.
As for `N[C@@H](CO)C(=O)O` [SER, L-Serine], the “A 600 nm” value (L-amino acid 1 mM) worked out at 0.001. The “Normalized activity (%)” value under setting [1] was determined as 0.2%.
On the same counts, the results for `N[C@@H](CCC(=O)O)C(=O)O` [GLU, L-Glutamate] are 0.002 and 0.3%.
With `N[C@@H](Cc1c[nH]c2ccccc12)C(=O)O` [TRP, L-Tryptophan], the “A 600 nm” value (L-amino acid 1 mM) came out at 0.003. Moreover, under setting [1], the “Normalized activity (%)” value came to 0.4%.
On the same counts, the results for `N[C@@H](Cc1ccc(O)cc1)C(=O)O` [TYR, L-Tyrosine] are 0.002 and 0.3%.
On the same counts, the results for `NC(=O)CC[C@H](N)C(=O)O` [GLN, L-Glutamine] are 0.001 and 0.2%.
Turning to `CSCC[C@H](N)C(=O)O` [MET, L-Methionine], the “Normalized activity (%)” value worked out at 3.2%. For the same compound, for the setting “L-amino acid 1 mM”, the “A 600 nm” value is 0.019.
For `NCC(=O)O` [GLY, L-Glycine] the same measures were 0.1% and 0.001.
In the case of `CC(C)C[C@H](N)C(=O)O` [LEU, L-Leucine], for the setting “L-amino acid 1 mM”, the “A 600 nm” value was 0.587. The “Normalized activity (%)” value under setting [1] was found to be 100.0%.
For `N[C@@H](Cc1ccccc1)C(=O)O` [PHE, L-Phenylalanine] the same measures were 0.002 and 0.3%.
For `NCCCC[C@H](N)C(=O)O` [LYS, L-Lysine] the same measures were 0.001 and 0.1%.
With `C[C@H](N)C(=O)O` [ALA, L-Alanine], the “A 600 nm” value (L-amino acid 1 mM) is listed as 0.002. The “Normalized activity (%)” value under setting [1] was 0.3%.
On the same counts, the results for `N[C@@H](CC(=O)O)C(=O)O` [ASP, L-Aspartate] are 0.000 and 0.0%.
As for `N[C@@H](Cc1c[nH]cn1)C(=O)O` [HIS, L-Histidine], where the note is “L-amino acid 1 mM”, the “A 600 nm” value is recorded as 0.001. In addition, the “Normalized activity (%)” value under setting [1] worked out at 0.2%.
On the same counts, the results for `CC[C@H](C)[C@H](N)C(=O)O` [ILE, L-Isoleucine] are 0.601 and 102.5%.
On the same counts, the results for `CC(C)[C@H](N)C(=O)O` [VAL, L-Valine] are 0.612 and 104.3%.
In the case of `O=C(O)[C@@H]1CCCN1` [PRO, L-Proline], the “Normalized activity (%)” value worked out at 1.3%. Moreover, the “A 600 nm” value (L-amino acid 1 mM) is recorded as 0.008.
